# Measured values as given in patent US20140113934A1, “HETEROCYCLIC COMPOUNDS FOR TREATING HELMINTH INFECTIONS” (E I DU PONT DE NEMOURS AND COMPANY, priority 2011, published 2014).
# System: Haemonchus contortus
# Assay: Test B: Haemonchus contortus burdens in orally infected mice after gavage of test compound
# Assay type: in vivo
# Conditions: mice infected orally with 600 L3 Haemonchus contortus larvae; gavage 10.0 mg/kg on day 0; burdens on day 5 relative to vehicle-dosed controls
# Procedure: For evaluating control of the barber pole worm (Haemonchus contortus), mice were each infected orally with 600 L3 Hlaemonchus contortus larvae on Day −3. On day 0, the infected mice were gavaged with a test compound (n=1) in a propylene glycol/glycerol formal solution at the rate of 10.0 mg/kg body weight. On day 5, the mice were euthanized and evaluated for Haemonchus contortus burdens relative to the vehicle-dosed controls. The range of means for the number of Haemonchus contortus in the various tests in which these compounds were studied was 55-184.
row,Molecule,% Efficacy [%]
1,4-(2-chloro-4-cyanophenoxy)-N-(quinolinylmethyl)benzenesulfonamide [Compound 15],79
2,O=S(=O)(NCc1ccnc2ccccc12)c1ccc(C(F)c2ccccc2)cc1 (racemic) [Compound 76],87
3,"N#Cc1c(Cl)cccc1Oc1ccc(S(=O)(=O)NCc2ccnc3ccccc23)cc1 [Compound 2, 4-(3-chloro-2-cyanophenoxy)-N-(4-quinolinylmethyl)benzenesulfonamide]",76
4,"O=S(=O)(NCc1ccnc2ccccc12)c1ccc(Cc2ccccc2)cc1 [Compound 5, 4-(phenylmethyl)-N-(4-quinolinylmethyl)benzenesulfonamide]",69
5,O=S(=O)(NCc1ccnc2ccccc12)c1ccc(OCc2ccc(Cl)cc2Cl)cc1 [Compound 7],61
6,N#Cc1ccc(Oc2ccc(S(=O)(=O)NCc3ccnc4ccccc34)cc2)cc1 [Compound 9],72
7,N#Cc1cccc(Oc2ccc(S(=O)(=O)NCc3ccnc4ccccc34)cc2)c1 [Compound 23],54
8,COC(=O)c1ccc(Oc2ccc(S(=O)(=O)NCc3ccnc4ccccc34)cc2)c(Cl)c1 [Compound 27],78
9,O=S(=O)(NCc1ccnc2ccccc12)c1ccc(C#Cc2ccccc2)cc1 [Compound 28],62
10,N#Cc1cc(Br)ccc1Oc1ccc(S(=O)(=O)NCc2ccnc3ccccc23)cc1 [Compound 31],66
11,O=S(=O)(NCc1ccnc2ccccc12)c1ccc(COc2ccc(Cl)cc2)cc1 [Compound 34],71
12,O=S(=O)(NCc1ccnc2ccccc12)c1ccc(CCc2ccccc2)cc1 [Compound 38],75
13,CNC(=O)c1ccc(Oc2ccc(S(=O)(=O)NCc3ccnc4ccccc34)cc2)cc1 [Compound 51],74
14,O=C(Nc1ccc(S(=O)(=O)NCc2ccnc3ccccc23)cc1)c1ccccc1 [Compound 53],61
15,O=C(Nc1ccc(S(=O)(=O)NCc2ccnc3ccccc23)cc1)c1ccccc1Cl [Compound 56],78
16,O=S(=O)(NCc1ccnc2ccccc12)c1ccc(Cc2ccc(F)cc2)cc1 [Compound 59],86
17,O=S(=O)(NCc1ccnc2ccccc12)c1ccc(Cc2ccc(F)cc2F)cc1 [Compound 60],76
18,O=S(=O)(NCc1ccnc2ccccc12)c1cccc(Cc2ccccc2)c1 [Compound 64],70
19,COc1ccccc1C(=O)Nc1ccc(S(=O)(=O)NCc2ccnc3ccccc23)cc1 [Compound 69],90
20,O=S(=O)(NCc1ccnc2ccccc12)c1ccc(Nc2ccccc2)cc1 [Compound 70],89
21,O=S(=O)(NCc1ccnc2ccccc12)c1ccc(C#Cc2ccccc2)s1 [Compound 74],60
22,O=S(=O)(NCc1ccnc2ccccc12)c1ccc(Cc2ccccc2)s1 [Compound 80],80
23,O=S(=O)(NCc1ccnc2ccccc12)c1ccc(Cc2ccccc2F)cc1 [Compound 91],93
24,O=S(=O)(NCc1ccnc2ccccc12)c1cccc(Cc2ccc(F)cc2)c1 [Compound 92],73

# System: Haemonchus contortus
# Assay: Test A: control of barber pole worm, eggs in culture media, mortality after 120 hours (L3 stage)
# Assay type: cell-based
# Conditions: not given
# Procedure: For evaluating control of the barber pole worm (Haemonchus contortus), a test compound was solubilized in culture media (Earle's Balanced Salt Solution) containing Haemonchus contortus eggs to obtain a final test compound concentration of 2.0 ppm. The test unit was evaluated for mortality 120 hours later after which the eggs had hatched and had advanced to the L3 stage.
row,Molecule,mortality at 2 ppm [%]
1,"N#Cc1c(Cl)cccc1Oc1ccc(S(=O)(=O)NCc2ccnc3ccccc23)cc1 [Compound 2, 4-(3-chloro-2-cyanophenoxy)-N-(4-quinolinylmethyl)benzenesulfonamide]",100
2,"O=S(=O)(NCc1ccnc2ccccc12)c1ccc(Cc2ccccc2)cc1 [Compound 5, 4-(phenylmethyl)-N-(4-quinolinylmethyl)benzenesulfonamide]",100
3,"COC(=O)c1ccccc1Oc1ccc(S(=O)(=O)NCc2ccnc3ccccc23)cc1 [Compound 16, methyl 2-[4-[[(4-quinolinylmethyl)amino]sulfonyl]phenoxy]benzoate]",100
4,O=S(=O)(NCc1ccnc2ccccc12)c1ccc(S(=O)(=O)c2ccccc2)s1 [Compound 36],100
5,O=S(=O)(NCc1ccnc2ccccc12)c1ccc(COc2ccccc2)cc1Cl [Compound 37],100
6,O=S(=O)(NCc1ccnc2ccccc12)c1cccc(OCc2ccccc2)c1 [Compound 40],100
7,N#Cc1ccccc1Oc1ccc(S(=O)(=O)NCc2ccnc3ccccc23)cn1 [Compound 41],100
8,O=S(=O)(NCc1ccnc2ccccc12)c1cccc(COc2ccc(Cl)cc2Cl)c1 [Compound 44],100
9,O=S(=O)(NCc1ccnc2ccccc12)c1cccc(COc2ccccc2)c1 [Compound 46],100
10,O=S(=O)(NCc1ccnc2ccccc12)c1cccc(Cc2ccccc2)c1 [Compound 64],100
11,O=S(=O)(NCc1ccnc2ccccc12)c1ccc(C#Cc2ccc(Cl)cc2Cl)s1 [Compound 73],100
12,O=S(=O)(NCc1ccnc2ccccc12)c1ccc(C#Cc2ccccc2)s1 [Compound 74],100
13,O=S(=O)(NCc1ccnc2ccccc12)c1ccc(C#Cc2ccccc2Cl)s1 [Compound 75],100
14,O=S(=O)(NCc1ccnc2ccccc12)c1ccc(Cc2ccccc2)s1 [Compound 80],100
15,O=S(=O)(NCc1ccnc2ccccc12)c1cccc(Cc2ccc(F)cc2)c1 [Compound 92],100
16,O=S(=O)(NCc1ccnc2ccccc12)c1ccc(Cc2ccc(F)cc2F)s1 [Compound 99],100
